# Measured values reported in patent publication US10556865B2, “Synergistic herbicidal composition containing certain pyridine or pyrimidine carboxylic acids and certain cereal and rice herbicides” (Dow AgroSciences, LLC, priority 2007, dated 2020).
# “And” between values parts separate entries of the source, which are not always exact repeats. Equal entries are not always repeated.
# How the values were obtained:
# yellow foxtail (PESGL) = experiment: Postemergence herbicidal activity of mixtures in cereal crops (greenhouse, visual injury); type: in vivo, Pennisetum americanum
# Description: Seeds of the desired test plant species were planted in Sun Gro MetroMix® 306 planting mixture, which typically has a pH of 6.0 to 6.8 and an organic matter content of about 30 percent, in plastic pots with a surface area of 103.2 square centimeters (cm^2). […] The plants were grown for 7-36 days in a greenhouse with an approximate 14 hour photoperiod which was maintained at about 18° C. during the day and 17° C. during the night. Nutrients and water were added on a regular basis and supplemental lighting was provided with overhead metal halide 1000-Watt lamps as necessary. The plants were employed for testing when they reached the second or third true leaf stage.
# Treatments consisted of compound (as listed in Tables 1 through 64) and a second cereal herbicide alone and in combination. […] The concentrated stock solutions were diluted to 1.5 mg ai/mL with the addition of 2 volumes of an aqueous mixture containing acetone, water, isopropyl alcohol, DMSO, Agri-dex crop oil concentrate, and Triton® X-77 surfactant in a 64.7:26.0:6.7:2.0:0.7:0.01 v/v ratio. A dilution solution was prepared by mixing 1 volume of 97:3 v/v acetone/DMSO and 2 volumes of an aqueous mixture containing acetone, water, isopropyl alcohol, DMSO, Agri-dex crop oil concentrate, and Triton® X-77 surfactant in a 64.7:26.0:6.7:2.0:0.7:0.01 v/v ratio. Compound requirements are based upon a 12 mL application volume at a rate of 187 liters per hectare (L/ha). […] Formulated compounds were applied to the plant material with an overhead Mandel track sprayer equipped with 8002E nozzles calibrated to deliver 187 L/ha over an application area of 0.503 square meters (m^2) at a spray height of 18 inches […] above average plant canopy. Control plants were sprayed in the same manner with the solvent blank.
# The treated plants and control plants were placed in a greenhouse as described above and watered by sub-irrigation to prevent wash-off of the test compounds. After 20-22 days, the condition of the test plants as compared with that of the control plants was determined visually and scored on a scale of 0 to 100 percent where 0 corresponds to no injury and 100 corresponds to complete kill.
# Colby's equation was used to determine the herbicidal effects expected from the mixtures (Colby, S. R. 1967. Calculation of the synergistic and antagonistic response of herbicide combinations. Weeds 15:20-22.).
# The following equation was used to calculate the expected activity of mixtures containing two active ingredients, A and B: Expected=A+B−(A×B/100)
# [1] = system: Cyperus esculentus L. (CYPES); experiment: Postemergence herbicidal mixtures for weed control in direct seeded rice (greenhouse, visual % injury); type: in vivo; details: for % Injury Ob: CYPES
# [2] = system: Ipomoea hederacea (L.) JACQ. (IPOHE); experiment: Postemergence herbicidal mixtures for weed control in direct seeded rice (greenhouse, visual % injury after 3 weeks); type: in vivo; details: for % Injury Ob: IPOHE
# [3] = system: Polygonum persicaria L. (POLPE); experiment: Postemergence herbicidal mixtures for weed control in direct seeded rice (greenhouse, visual % injury); type: in vivo
# [4] = system: Leptochloa chinensis (L.) NEES (LEFCH); experiment: as above; type: in vivo; details: for % Injury Ob: LEFCH
# [5] = system: Canada thistle (Cirsium arvense L; CIRAR); experiment: Postemergence herbicidal activity of mixtures in cereal crops (greenhouse, visual injury); type: in vivo
# Method in brief: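 Weeds grown in greenhouse (~14 h photoperiod, ~18/17 °C day/night) to second–third true leaf stage, sprayed postemergence with compound and second cereal herbicide alone or combined; solvent-blank controls. Injury scored visually after 20-22 days, 0–100% (complete kill); expected mixture activity = A+B−(A×B/100).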
structure (smiles),measurement,setting,value
"COC(=O)c1nc(-c2ccc(Cl)c(OC)c2F)nc(N)c1Cl [Compound B Methyl, 6-amino-5-chloro-2-(4-chloro-2-fluoro-3-methoxyphenyl)pyrimidine-4-carboxylic acid methyl ester]",PESGL Ob,yellow foxtail (PESGL); 8.75 g/ha,60%
same,PESGL Ob,yellow foxtail (PESGL); 17.5 g/ha,65%
same,PESGL Ob,yellow foxtail (PESGL); 35 g/ha,65%
same,PESGL Ob,yellow foxtail (PESGL); 70 g/ha,70%
"COC(=O)c1nc(-c2ccc(Cl)c(OC)c2F)cc(N)c1Cl [Compound A Methyl, 4-amino-3-chloro-6-(4-chloro-2-fluoro-3-methoxyphenyl)pyridine-2-carboxylic acid methyl ester]",% Injury 11 DAA CYPES Ob,[1]; alone 8.75 g/ha,60%
same,% Injury 11 DAA CYPES Ob,[1]; alone 17.5 g/ha,70%
same,% Injury 21 DAA CYPES Ob,[1]; alone 8.75 g/ha,100%
same,% Injury 21 DAA CYPES Ob,[1]; alone 17.5 g/ha,99%
same,% Injury Ob,[1]; 4.38 g/ha alone,40%
same,% Injury Ob,[1]; 8.75 g/ha alone,60%
same,% Injury CYPES Ob,[1]; alone 4.38 g/ha,70% and 85%
same,% Injury Ob,[2]; 4.38 g/ha alone,20%
same,% Injury Ob,[2]; 8.75 g/ha alone,40%
same,% Injury Ob,[2]; 17.5 g/ha alone,75%
same,% Injury IPOHE Ob,[2]; alone 4.38 g/ha,10% and 0%
same,% Injury IPOHE Ob,[2]; alone 17.5 g/ha,85% and 75%
same,% Injury POLPE Ob,[3]; alone 8.75 g/ha,50%
same,% Injury POLPE Ob,[3]; alone 17.5 g/ha,90%
same,% Injury Ob,[4]; 17.5 g/ha alone,75% and 50%
same,% Injury Ob,[4]; 35 g/ha alone,90%
same,% Injury LEFCH Ob,[4]; alone 4.38 g/ha,30%
same,% Injury LEFCH Ob,[4]; alone 8.75 g/ha,40%
"COc1c(Cl)ccc(-c2cc(N)c(Cl)c(C(=O)O)n2)c1F [Compound A TEA, 4-amino-3-chloro-6-(4-chloro-2-fluoro-3-methoxyphenyl)pyridine-2-carboxylic acid]",CIRAR Ob,[5]; 35 g/ha,50%
same,CIRAR Ob,[5]; 70 g/ha,60%
same,CIRAR Ob,[5]; 140 g/ha,65%
